Laboratory results reported in PMC4769319, “Cohesin Releases DNA through Asymmetric ATPase-Driven Ring Opening” (Molecular Cell, 2016).

Target: T1, Smc1/Smc3 heterodimer with Scc1-C (cohesin) (Saccharomyces cerevisiae, UniProt P32908+P47037)
T1 construct: N-terminal tags; Sf9 insect cells; fluorescently labelled for MST; with Sister chromatid cohesion protein 1
T1 sequence (P32908 1-1225): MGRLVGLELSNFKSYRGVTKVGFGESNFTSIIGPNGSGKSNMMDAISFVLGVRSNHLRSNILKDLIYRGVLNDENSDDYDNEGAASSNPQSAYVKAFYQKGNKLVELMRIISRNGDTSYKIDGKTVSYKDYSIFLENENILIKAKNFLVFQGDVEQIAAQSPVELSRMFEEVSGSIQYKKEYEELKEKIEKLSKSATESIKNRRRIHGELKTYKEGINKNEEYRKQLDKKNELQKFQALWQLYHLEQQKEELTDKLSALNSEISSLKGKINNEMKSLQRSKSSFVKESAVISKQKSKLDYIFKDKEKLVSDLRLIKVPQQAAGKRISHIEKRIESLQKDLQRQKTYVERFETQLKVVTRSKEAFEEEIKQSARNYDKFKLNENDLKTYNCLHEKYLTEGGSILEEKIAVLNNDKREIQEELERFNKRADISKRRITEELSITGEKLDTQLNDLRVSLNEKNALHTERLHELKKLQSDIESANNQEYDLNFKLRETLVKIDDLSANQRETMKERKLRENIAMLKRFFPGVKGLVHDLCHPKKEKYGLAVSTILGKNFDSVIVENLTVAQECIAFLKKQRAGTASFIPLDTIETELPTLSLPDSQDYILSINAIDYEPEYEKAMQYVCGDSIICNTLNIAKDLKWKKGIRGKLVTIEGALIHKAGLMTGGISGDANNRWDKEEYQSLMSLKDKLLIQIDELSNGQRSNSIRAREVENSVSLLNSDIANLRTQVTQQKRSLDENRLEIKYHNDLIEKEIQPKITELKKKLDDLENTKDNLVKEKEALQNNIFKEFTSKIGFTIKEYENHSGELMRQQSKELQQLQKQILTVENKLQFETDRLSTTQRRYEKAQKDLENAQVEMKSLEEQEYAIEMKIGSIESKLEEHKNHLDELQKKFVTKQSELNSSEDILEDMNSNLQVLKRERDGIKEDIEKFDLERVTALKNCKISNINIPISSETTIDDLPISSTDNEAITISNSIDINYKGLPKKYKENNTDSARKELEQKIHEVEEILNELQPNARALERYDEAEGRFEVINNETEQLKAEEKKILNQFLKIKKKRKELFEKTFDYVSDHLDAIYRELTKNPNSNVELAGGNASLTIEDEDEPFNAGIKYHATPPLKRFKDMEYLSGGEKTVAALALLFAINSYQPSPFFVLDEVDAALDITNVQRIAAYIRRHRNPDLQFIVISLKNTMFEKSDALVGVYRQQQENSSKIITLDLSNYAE
T1 sequence (P47037 1-1230): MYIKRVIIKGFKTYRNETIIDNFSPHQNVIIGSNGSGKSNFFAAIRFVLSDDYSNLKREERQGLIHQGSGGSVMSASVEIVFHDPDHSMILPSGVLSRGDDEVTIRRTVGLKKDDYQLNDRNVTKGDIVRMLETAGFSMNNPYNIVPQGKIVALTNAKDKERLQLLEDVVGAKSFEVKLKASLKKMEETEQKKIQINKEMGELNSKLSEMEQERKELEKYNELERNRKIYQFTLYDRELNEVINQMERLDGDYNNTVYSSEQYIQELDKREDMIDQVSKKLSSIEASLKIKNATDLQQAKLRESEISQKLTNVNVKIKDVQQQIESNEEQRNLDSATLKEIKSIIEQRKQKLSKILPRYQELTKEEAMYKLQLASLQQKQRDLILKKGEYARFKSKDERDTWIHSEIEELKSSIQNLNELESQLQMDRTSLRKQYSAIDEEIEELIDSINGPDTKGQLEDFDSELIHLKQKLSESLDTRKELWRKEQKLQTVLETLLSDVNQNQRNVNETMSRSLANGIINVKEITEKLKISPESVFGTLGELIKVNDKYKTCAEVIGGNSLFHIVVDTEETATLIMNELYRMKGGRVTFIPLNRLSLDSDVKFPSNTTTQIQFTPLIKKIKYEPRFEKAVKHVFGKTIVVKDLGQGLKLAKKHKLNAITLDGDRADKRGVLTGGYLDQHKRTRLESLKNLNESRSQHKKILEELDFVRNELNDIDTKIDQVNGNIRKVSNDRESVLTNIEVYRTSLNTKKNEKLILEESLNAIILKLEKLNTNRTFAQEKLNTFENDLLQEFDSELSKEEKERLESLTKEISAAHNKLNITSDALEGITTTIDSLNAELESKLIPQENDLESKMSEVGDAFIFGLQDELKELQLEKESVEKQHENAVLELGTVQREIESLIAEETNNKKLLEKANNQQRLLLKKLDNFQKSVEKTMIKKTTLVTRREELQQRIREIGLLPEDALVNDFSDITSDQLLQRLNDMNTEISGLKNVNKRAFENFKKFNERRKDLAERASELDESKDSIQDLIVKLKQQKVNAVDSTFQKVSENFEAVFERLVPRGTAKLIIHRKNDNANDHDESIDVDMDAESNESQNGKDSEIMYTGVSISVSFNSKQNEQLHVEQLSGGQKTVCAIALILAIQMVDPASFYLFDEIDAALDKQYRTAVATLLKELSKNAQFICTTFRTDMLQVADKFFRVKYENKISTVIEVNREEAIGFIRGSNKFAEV
T1 sequence (Q12158 1-566 partner): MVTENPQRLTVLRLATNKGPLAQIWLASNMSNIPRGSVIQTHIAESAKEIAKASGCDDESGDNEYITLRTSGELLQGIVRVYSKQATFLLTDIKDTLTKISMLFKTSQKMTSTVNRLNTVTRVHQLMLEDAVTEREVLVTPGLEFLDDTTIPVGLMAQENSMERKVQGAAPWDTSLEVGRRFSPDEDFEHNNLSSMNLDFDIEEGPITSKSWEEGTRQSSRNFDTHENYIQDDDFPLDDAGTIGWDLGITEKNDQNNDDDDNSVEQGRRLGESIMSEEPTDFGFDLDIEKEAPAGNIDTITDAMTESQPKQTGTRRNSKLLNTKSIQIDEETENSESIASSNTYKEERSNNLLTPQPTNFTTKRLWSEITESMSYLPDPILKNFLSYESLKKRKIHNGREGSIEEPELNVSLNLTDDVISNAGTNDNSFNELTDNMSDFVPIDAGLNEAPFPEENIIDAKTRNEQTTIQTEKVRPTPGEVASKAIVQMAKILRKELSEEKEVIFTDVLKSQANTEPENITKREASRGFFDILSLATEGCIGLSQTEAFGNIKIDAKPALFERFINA
Experiment: microscale thermophoresis
Format: binding
Details: fluorescently labelled protein; Smc1 co-purified with Scc1-C, plus Smc3; read-out: affinity
From the text: microscale thermophoresis on Smc1/Smc3 heterodimer with Scc1-C (cohesin) | wild-type and mutant cohesin complexes appear to have similar affinities to ADP

Nc1ncnc2c1ncn2[C@@H]1O[C@H](COP(=O)(O)OP(=O)(O)O)[C@@H](O)[C@H]1O [ADP]
Kd: > 1000 µM
